Results from article PMC6100415, “Hepatic Metabolism of Sakuranetin and Its Modulating Effects on Cytochrome P450s and UDP-Glucuronosyltransferases” (Molecules : A Journal of Synthetic Chemistry and Natural …, 2018).
Where two headings read alike, the source gives them in different places.

Experiments:
Format in all cases: in vitro ADME
[1] = molecular target: T1, UGT2B7 (Homo sapiens, UniProt P16662); assay: UGT inhibition in human liver microsomes, zidovudine 5′-glucuronidation (AZTG); conditions: pH 7.4, probe zidovudine (200 μM)
T1 construct: The typical incubation mixture contained human liver microsomes (0.5 mg/mL) along with SKN (10 μM); tissue BD Gentest; host or cells: human liver microsomes
T1 sequence (P16662 24-529): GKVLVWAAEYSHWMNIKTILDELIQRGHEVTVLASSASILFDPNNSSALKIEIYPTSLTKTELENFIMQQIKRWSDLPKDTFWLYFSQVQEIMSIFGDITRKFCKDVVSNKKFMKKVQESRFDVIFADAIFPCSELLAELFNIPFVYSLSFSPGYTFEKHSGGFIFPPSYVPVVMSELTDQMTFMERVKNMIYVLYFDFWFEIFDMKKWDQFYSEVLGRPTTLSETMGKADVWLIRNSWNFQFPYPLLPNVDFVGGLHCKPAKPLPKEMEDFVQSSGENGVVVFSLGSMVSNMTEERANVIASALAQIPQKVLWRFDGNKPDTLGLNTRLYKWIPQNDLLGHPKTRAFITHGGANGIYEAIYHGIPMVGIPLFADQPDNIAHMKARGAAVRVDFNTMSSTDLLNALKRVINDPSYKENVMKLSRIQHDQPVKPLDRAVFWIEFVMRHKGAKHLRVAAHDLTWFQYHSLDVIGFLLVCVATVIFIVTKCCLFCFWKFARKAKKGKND
Method: (§1) The formation of a glucuronide conjugate from an isozyme-specific substrate (200 μM, Table 5) was examined to determine UGT activity levels in human liver microsomes. The typical incubation mixture contained human liver microsomes (0.5 mg/mL) along with SKN (10 μM), and MgCl2 (10 mM) in 50 mM Tris-HCl buffer (pH 7.4). The metabolic reaction was initiated by adding UPDGA (2 mM) and stopped by adding an equal volume of ice-cold methanol. […] The conditions used for the operation and analysis of the HPLC-DAD and LC-ESI-MS are provided in the Supplementary Materials and Table S3.
(§2) The solvent flow rate was set at 0.2 mL/min, and the column temperature was set at 35 °C. The LTQ instrument was operated in negative ion electron spray mode at an ion spray voltage of −4.2 kV and a source temperature of 275 °C. The sheath gas flow rate was 35 arb, and the aux gas flow rate was 5 arb. The MS conditions used to detect glucuronides via selected ion monitoring scan mode are summarized in Supplementary Materials Table S3.

[2] = molecular target: T2, UGT1A4 (Homo sapiens, UniProt P22310); assay: UGT inhibition in human liver microsomes, trifluoperazine N-glucuronidation (TFPG); conditions: pH 7.4, probe trifluoperazine (200 μM)
T2 construct: The typical incubation mixture contained human liver microsomes (0.5 mg/mL) along with SKN (10 μM); tissue BD Gentest; host or cells: human liver microsomes
T2 sequence (P22310 29-534): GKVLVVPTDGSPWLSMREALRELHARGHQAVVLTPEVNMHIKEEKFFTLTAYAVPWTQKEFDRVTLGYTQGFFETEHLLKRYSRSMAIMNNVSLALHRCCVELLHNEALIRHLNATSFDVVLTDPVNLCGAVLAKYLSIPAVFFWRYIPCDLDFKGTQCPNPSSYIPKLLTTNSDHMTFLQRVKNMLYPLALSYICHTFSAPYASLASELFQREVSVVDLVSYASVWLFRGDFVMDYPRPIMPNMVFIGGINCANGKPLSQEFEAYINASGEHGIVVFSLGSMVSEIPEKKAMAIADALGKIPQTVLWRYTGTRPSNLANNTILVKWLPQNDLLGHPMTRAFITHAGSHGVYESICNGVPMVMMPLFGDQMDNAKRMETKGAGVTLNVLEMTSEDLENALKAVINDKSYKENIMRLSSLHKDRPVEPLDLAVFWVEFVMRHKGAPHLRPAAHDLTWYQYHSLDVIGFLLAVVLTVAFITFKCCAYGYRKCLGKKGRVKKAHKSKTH
Method: as §1, §2

[3] = molecular target: T3, UGT1A6 (Homo sapiens, UniProt P19224); assay: UGT inhibition in human liver microsomes, 1-naphthol β-D-glucuronidation (NPG); conditions: pH 7.4, probe 1-naphthol (200 μM)
T3 construct: The typical incubation mixture contained human liver microsomes (0.5 mg/mL) along with SKN (10 μM); tissue BD Gentest; host or cells: human liver microsomes
T3 sequence (P19224 27-532): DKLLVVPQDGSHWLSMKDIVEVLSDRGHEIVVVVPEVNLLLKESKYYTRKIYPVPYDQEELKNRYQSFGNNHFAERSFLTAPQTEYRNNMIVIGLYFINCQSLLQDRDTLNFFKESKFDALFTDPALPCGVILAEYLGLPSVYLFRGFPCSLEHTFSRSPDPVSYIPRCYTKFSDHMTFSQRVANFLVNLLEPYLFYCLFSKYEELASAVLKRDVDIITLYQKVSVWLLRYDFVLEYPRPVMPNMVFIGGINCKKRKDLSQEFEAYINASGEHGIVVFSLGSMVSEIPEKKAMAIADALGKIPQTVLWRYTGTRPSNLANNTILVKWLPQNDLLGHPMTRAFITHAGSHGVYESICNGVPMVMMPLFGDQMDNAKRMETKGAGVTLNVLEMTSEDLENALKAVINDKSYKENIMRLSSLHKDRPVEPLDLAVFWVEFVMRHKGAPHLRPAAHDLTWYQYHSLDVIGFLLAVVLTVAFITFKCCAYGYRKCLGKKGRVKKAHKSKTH
Method: as §1, §2

[4] = molecular target: CYP2D6 (Homo sapiens, UniProt P10635); assay: CYP inhibition in human liver microsomes, dextromethorphan O-demethylation (DEXOD); conditions: pH 7.4, probe dextromethorphan (O-demethylation, DEXOD)
CYP2D6, sequence (P10635 whole entry): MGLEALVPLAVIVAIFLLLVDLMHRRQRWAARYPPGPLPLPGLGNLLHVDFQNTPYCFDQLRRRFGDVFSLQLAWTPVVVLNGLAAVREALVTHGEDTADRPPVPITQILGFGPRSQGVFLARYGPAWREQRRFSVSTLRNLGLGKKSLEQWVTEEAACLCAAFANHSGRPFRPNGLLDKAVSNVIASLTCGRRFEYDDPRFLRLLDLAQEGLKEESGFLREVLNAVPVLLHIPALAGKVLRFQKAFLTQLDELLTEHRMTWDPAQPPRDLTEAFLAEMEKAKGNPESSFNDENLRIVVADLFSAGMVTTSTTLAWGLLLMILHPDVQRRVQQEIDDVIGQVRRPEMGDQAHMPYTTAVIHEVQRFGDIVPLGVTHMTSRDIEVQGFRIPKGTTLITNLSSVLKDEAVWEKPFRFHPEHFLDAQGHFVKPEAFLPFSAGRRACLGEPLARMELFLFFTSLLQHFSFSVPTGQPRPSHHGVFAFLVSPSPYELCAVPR
Description: The DAD was set at 280 nm.

[5] = molecular target: T4, UGT1A1 (Homo sapiens, UniProt P22309); assay: UGT inhibition in human liver microsomes, 17β-estradiol 3-O-glucuronidation (ESG); conditions: pH 7.4, probe 17β-estradiol (200 μM)
T4 construct: The typical incubation mixture contained human liver microsomes (0.5 mg/mL) along with SKN (10 μM); tissue BD Gentest; host or cells: human liver microsomes
T4 sequence (P22309 26-533): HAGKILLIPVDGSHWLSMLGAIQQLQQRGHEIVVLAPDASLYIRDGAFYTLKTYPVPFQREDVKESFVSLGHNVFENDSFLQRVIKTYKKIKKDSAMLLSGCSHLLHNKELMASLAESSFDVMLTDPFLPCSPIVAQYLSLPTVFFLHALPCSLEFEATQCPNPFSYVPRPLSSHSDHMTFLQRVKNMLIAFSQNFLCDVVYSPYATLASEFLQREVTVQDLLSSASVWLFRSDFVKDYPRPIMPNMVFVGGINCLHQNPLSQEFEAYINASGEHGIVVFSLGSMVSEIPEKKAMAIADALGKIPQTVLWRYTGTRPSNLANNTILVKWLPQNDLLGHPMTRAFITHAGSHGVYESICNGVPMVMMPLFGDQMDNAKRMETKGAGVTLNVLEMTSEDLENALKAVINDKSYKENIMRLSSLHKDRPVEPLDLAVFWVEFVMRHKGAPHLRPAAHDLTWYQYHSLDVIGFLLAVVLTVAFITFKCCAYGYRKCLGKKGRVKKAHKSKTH
Method: as §1, §2

[6] = SKN 10 μM, 15 min pre-incubation, read-out: % Inhibition in Pre-Incubation
[7] = SKN 10 μM, read-out: % Inhibition in Co-Incubation
[8] = inhibitor 10 µM, human liver microsomes 0.5 mg/mL, read-out: Inhibition (%)
[9] = human liver microsomes, 200 µM, inhibitor 10 M [sic], human liver microsomes 0.5 mg/mL, read-out: Inhibition (%)

SMILES	inhibition at 10 μM [1, 6] [%]	inhibition at 10 μM [1, 7] [%]	inhibition at 10 μM [2, 6] [%]	inhibition at 10 μM [2, 7] [%]	inhibition at 10 μM [3, 6] [%]	inhibition at 10 μM [3, 7] [%]	inhibition at 60 min, 10 µM ([4]; liver microsomes, 200 μM, SKN 10 μM, 15 min pre-incubation, read-out: % Inhibition in Pre-Incubation) [%]	inhibition at 60 min, 10 µM ([4]; liver microsomes, 200 μM, SKN 10 μM, human liver microsomes, read-out: % Inhibition in Co-Incubation) [%]	inhibition at 10 μM [5, 6] [%]	inhibition at 10 μM [5, 7] [%]	inhibition at 10 μM [1, 8] [%]	inhibition at 10 μM [2, 8] [%]	inhibition at 10 μM [3, 8] [%]	inhibition at 60 min, 10 µM [4, 9] [%]	inhibition at 10 μM [5, 8] [%]
COc1cc(O)c2c(c1)OC(c1ccc(O)cc1)CC2=O (racemic) [SKN, (+/−) 7-O-methylnaringenin]	12.6 ± 2.8	15.6 ± 0.6	8.7 ± 1.4	15.3 ± 3.8	10.1 ± 1.2	2 ± 0.6	3.5 ± 2.6	-0.6 ± 3.1	1.5 ± 2.1	0.4 ± 0.5					
O=C1C[C@@H](c2ccc(O)c(O)c2)Oc2cc(O)cc(O)c21 [Eriodictyol, 3′-hydroxynaringenin]											8.2 ± 1.4	13.7 ± 3.8	1.9 ± 2.7	5.6 ± 3.6	20.8 ± 3.4
O=C1C[C@@H](c2ccc(O)cc2)Oc2cc(O)cc(O)c21 [Naringenin]											6 ± 2.2	9.6 ± 3.1	4.1 ± 3.1	11.9 ± 1.4	10.8 ± 3
